This passage reports EC50 and inhibition results from patent US10383861B2, “3-(1H-pyrrolo[2,3-C]pyridin-2-yl)-1H-pyrazolo[3,4-C]pyridines and therapeutic uses thereof” (Samumed, LLC, priority 2015, dated 2019).

Holding throughout (assay type): cell-based
The test system of test [1] is primary human fibroblasts derived from IPF patients (LL29 cells). Put plainly: Inhibition of the fibrotic process: αSMA staining in TGF-β1 treated LL29 fibroblasts. The settings on record: Fibroblast; for EC50: 96 h, LL29 cells, TGF-β1 20 ng/mL, 4 days, % αSMA positive cells; for inhibition at 10 µM: read-out: percent inhibition at 10 μM. As to the method: Representative compounds were screened using primary human fibroblasts (derived from IPF patients) treated with TGF-β1 to determine their ability to inhibit the fibrotic process.
LL29 cells are plated at 1,500 cells/well in 80 μL/well F12 medium supplemented with 1% Fetal Bovine Serum. […] Wells treated with TGF-β1 and containing DMSO were used as controls. […] Following incubation for 4 days, SYTOX green nucleic acid stain (Life Technologies [Thermo Fisher Scientific]) was added to the wells at a final concentration of 1 μM and incubated at room temperature for 30 min.

Another test concerns SW480 colon cancer cells. Put plainly: Cell viability assay (CellTiter-Blue) in SW480 colon cancer cells. The settings on record: Homo sapiens; for EC50: 96 h, SW480 cell viability, four days, CellTiter-Blue; for inhibition at 10 µM: SW480, read-out: percent inhibition at 10 μM. As to the method:
Representative compounds were screened using the following assay procedure to assess the effect on cell viability as described below.
Approximately 2×10^3 SW480 colon cancer cells were seeded into each well and allowed to incubate in the presence or absence of compound for four days at 37° C./5% CO2. Eight replicates of DMSO-treated cells served as controls and cells treated with compound were performed in duplicate.
After incubation, 20 μL of CellTiter-Blue (Promega) was added to each well allowed to incubate for approximately 3 hours. This reagent was a buffered solution which contains resazurin, metabolically active cells were able to reduce rezarurin (blue) into resorufin (pink) which was highly fluorescent. This measured fluorescence was used as a readout for cell viability.
(The colour change of resazurin is a common sign of viable cells or microbes.)

In another test the test system is Wnt activity. Put plainly: Wnt activity screening assay, Sp5-Luc reporter gene in SW480 cells. Conditions: Homo sapiens; for EC50: Sp5-Luc reporter, SW480 cells, overnight incubation; for inhibition at 10 µM: SW480, read-out: percent inhibition at 10 μM. The source says:
The screening assay for Wnt activity is described as follows. Reporter cell lines can be generated by stably transducing cancer cell lines (e.g., colon cancer) or primary cells (e.g., IEC-6 intestinal cells) with a lentiviral construct that includes a Wnt-responsive promoter driving expression of the firefly luciferase gene.
SW480 colon carcinoma cells were transduced with a lentiviral vector expressing luciferase with a human Sp5 promoter consisting of a sequence of eight TCF/LEF binding sites. SW480 cells stably expressing the Sp5-Luc reporter gene and a hygromycin resistance gene were selected by treatment with 150 μg/mL of hygromycin for 7 days. These stably transduced SW480 cells were expanded in cell culture and used for all further screening activities. […] For Sp5-Luc reporter gene assays, the cells were plated at 4,000 cells/well in 384-well plates with medium containing 1% fetal bovine serum and incubated overnight at 37° C. and 5% CO2. Following incubation, 20 μl of BrightGlo luminescence reagent (Promega) was added to each well of the 384-well assay plates. The plates were placed on an orbital shaker for 2 min and then luminescence was quantified using the Envision (Perkin Elmer) plate reader. Readings were normalized to DMSO only treated cells, and normalized activities were utilized for EC50 calculations using the dose-response log (inhibitor) vs. response -variable slope (four parameters) nonlinear regression feature available in GraphPad Prism 5.0 (or Dotmatics).
(In general: In a reporter assay the amount or activity of a reporter protein is the signal.)

The next test deals with IL-6. Put plainly: IL-6 inhibition in LPS-stimulated THP-1 cells (HTRF). The settings on record: Homo sapiens; for EC50: THP-1 cells, LPS 500 ng/mL, 22 hours, IL6 HTRF; for inhibition at 10 µM: THP-1, read-out: percent inhibition at 10 μM. Here is the method:
THP-1 cells were cultured in basal media with 1% FBS for 24 hours before the start of the assay. […] THP-1 cells were plated at 5000 cells/well in the 384-well plates and incubated at 37° C. for 2 h. 500 ng/mL of LPS was added after 2 hours and cells were incubated for another 22 hours at 37° C. Plates were spun in a centrifuge for 1 minute at […] and a mixture of anti-IL6 XL665, and anti-IL6 Cryptate diluted in reconstitution buffer (Cisbio Inc.) was added to each well. Following incubation for 3 hrs at room temperature, Homogeneous Time-Resolved Fluorescence (HTRF) was measured using the Envision (Perkin Elmer) at 665 nm and […]. The ratio of fluorescence at 665 nm to 620 nm was used as a readout for IL6 quantification. All samples were processed in duplicate. Readings were normalized to DMSO treated cells and normalized activities were utilized for EC50 calculations using the dose-response log (inhibitor) vs. response -variable slope (four parameters) nonlinear regression feature available in GraphPad Prism 5.0 (or Dotmatics).
In general terms: Time-resolved FRET reads energy transfer from a long-lived donor to a nearby acceptor.

With `CC(C)(C)CC(=O)Nc1cncc(-c2cc3c(-c4cc5c(-c6ccccc6F)cncc5[nH]4)n[nH]c3cn2)c1` [Compound 72, N-(5-(3-(4-(2-Fluorophenyl)-1H-pyrrolo[2,3-c]pyridin-2-yl)-1H-pyrazolo[3,4-c]pyridin-5-yl)pyridin-3-yl)-3,3-dimethylbutanamide], the EC50 turned out to be 0.468 µM in test [1], 0.693 µM in the test with SW480 colon cancer cells, 0.975 µM in the test on Wnt activity and 0.805 µM with IL-6.
The matching figures for `O=C(Nc1cncc(-c2cc3c(-c4cc5c(-c6ccccc6F)cncc5[nH]4)n[nH]c3cn2)c1)C1CCCCC1` [Compound 79, N-(5-(3-(4-(2-Fluorophenyl)-1H-pyrrolo[2,3-c]pyridin-2-yl)-1H-pyrazolo[3,4-c]pyridin-5-yl)pyridin-3-yl)cyclohexanecarboxamide]: 1.08 µM, 1.73 µM, 3.25 µM and 9.56 µM.
The like results for `Fc1ccccc1-c1cncc2[nH]c(-c3n[nH]c4cnc(-c5ccccn5)cc34)cc12` [Compound 84, 3-(4-(2-Fluorophenyl)-1H-pyrrolo[2,3-c]pyridin-2-yl)-5-(pyridin-2-yl)-1H-pyrazolo[3,4-c]pyridine] were, in that order, 1.39 µM, 1.29 µM, 1.06 µM and 3.03 µM.
For `O=C(Cc1ccccc1)Nc1cncc(-c2cc3c(-c4cc5c(-c6cccnc6)cncc5[nH]4)n[nH]c3cn2)c1` [Compound 94, 2-Phenyl-N-(5-(3-(4-(pyridin-3-yl)-1H-pyrrolo[2,3-c]pyridin-2-yl)-1H-pyrazolo[3,4-c]pyridin-5-yl)pyridin-3-yl)acetamide], the EC50 was greater than 10 µM in test [1], greater than 10 µM in the test with SW480 colon cancer cells, greater than 10 µM in the test on Wnt activity and 3.05 µM in the test with IL-6. Moreover, the inhibition at 10 µM in test [1] amounted to 0%; with SW480 colon cancer cells, 28.9%; with Wnt activity, 12.2%.
For `CC(C)Nc1cncc(-c2cc3c(-c4cc5c(-c6cccnc6)cncc5[nH]4)n[nH]c3cn2)c1` [Compound 96, N-Isopropyl-5-(3-(4-(pyridin-3-yl)-1H-pyrrolo[2,3-c]pyridin-2-yl)-1H-pyrazolo[3,4-c]pyridin-5-yl)pyridin-3-amine], the EC50 in test [1] was 0.624 µM; with SW480 colon cancer cells it was greater than 10 µM; in the test with Wnt activity, 0.94 µM; in the test with IL-6, 3.15 µM. In the test with SW480 colon cancer cells, the inhibition at 10 µM amounted to 25.2%.
Consider `CC(C)CC(=O)Nc1cncc(-c2cc3c(-c4cc5c(-c6ccncc6)cncc5[nH]4)n[nH]c3cn2)c1` [Compound 114, 3-Methyl-N-(5-(3-(4-(pyridin-4-yl)-1H-pyrrolo[2,3-c]pyridin-2-yl)-1H-pyrazolo[3,4-c]pyridin-5-yl)pyridin-3-yl)butanamide], for which the 50% effective concentration (EC50) (in test [1]; in the test on SW480 colon cancer cells; with Wnt activity; with IL-6) was greater than 10 µM throughout. In addition, the inhibition at 10 µM in test [1] came to 23%; in the test with SW480 colon cancer cells it was 14.2%; in the test with Wnt activity, 15.1%; in the test on IL-6 it was 11.6%.
As for `O=C(Nc1cncc(-c2cc3c(-c4cc5c(-c6ccncc6)cncc5[nH]4)n[nH]c3cn2)c1)c1ccccc1` [Compound 123, N-(5-(3-(4-(Pyridin-4-yl)-1H-pyrrolo[2,3-c]pyridin-2-yl)-1H-pyrazolo[3,4-c]pyridin-5-yl)pyridin-3-yl)benzamide], the concentration giving a half-maximal response (EC50) (in test [1]; with SW480 colon cancer cells; with Wnt activity; in the test on IL-6) was greater than 10 µM each time. The inhibition at 10 µM in test [1] was 53.6%; in the test on SW480 colon cancer cells, 20.9%; in the test on Wnt activity it was 8%; in the test on IL-6, 19%.
On to `CCCCC(=O)Nc1cncc(-c2cc3c(-c4cc5c(-c6ccncc6)cncc5[nH]4)n[nH]c3cn2)c1` [Compound 131, N-(5-(3-(4-(Pyridin-4-yl)-1H-pyrrolo[2,3-c]pyridin-2-yl)-1H-pyrazolo[3,4-c]pyridin-5-yl)pyridin-3-yl)pentanamide], for which the EC50 (in test [1]; with SW480 colon cancer cells; in the test with Wnt activity; in the test on IL-6) was greater than 10 µM throughout. In addition, the inhibition at 10 µM is 8.3% in test [1], 17.8% in the test on SW480 colon cancer cells, 13.1% in the test on Wnt activity and 20.6% in the test on IL-6.
With `c1cc(-c2cc3c(-c4cc5c(N6CCCCC6)cncc5[nH]4)n[nH]c3cn2)ccn1` [Compound 186, 3-(4-(Piperidin-1-yl)-1H-pyrrolo[2,3-c]pyridin-2-yl)-5-(pyridin-4-yl)-1H-pyrazolo[3,4-c]pyridine], the 50% effective concentration (EC50) is 4.87 µM in test [1], 3.95 µM in the test on SW480 colon cancer cells, 5.51 µM in the test on Wnt activity and greater than 10 µM in the test with IL-6. For the same compound, the inhibition at 10 µM in the test on IL-6 came out at 20.1%.
Regarding `CN(C)c1cncc(-c2cc3c(-c4cc5ccncc5[nH]4)n[nH]c3cn2)c1` [Compound 259, 5-(3-(1H-Pyrrolo[2,3-c]pyridin-2-yl)-1H-pyrazolo[3,4-c]pyridin-5-yl)-N,N-dimethylpyridin-3-amine], the half-maximal effective concentration (EC50) in test [1] worked out at 0.606 µM; in the test with SW480 colon cancer cells, 0.82 µM; in the test with Wnt activity, 2.86 µM; in the test with IL-6 it was 3.58 µM.
The like results for `CN(C)Cc1cncc(-c2cc3c(-c4cc5ccncc5[nH]4)n[nH]c3cn2)c1` [Compound 265, 1-(5-(3-(1H-Pyrrolo[2,3-c]pyridin-2-yl)-1H-pyrazolo[3,4-c]pyridin-5-yl)pyridin-3-yl)-N,N-dimethylmethanamine] were, in that order, 1.48 µM, 2.65 µM, 2.54 µM and 3.11 µM.
Regarding `O=C(Nc1cncc(-c2cc3c(-c4cc5ccncc5[nH]4)n[nH]c3cn2)c1)C1CC1` [Compound 272, N-(5-(3-(1H-Pyrrolo[2,3-c]pyridin-2-yl)-1H-pyrazolo[3,4-c]pyridin-5-yl)pyridin-3-yl)cyclopropanecarboxamide], the EC50 in test [1] is 0.467 µM; with SW480 colon cancer cells, greater than 10 µM; in the test with Wnt activity, 0.977 µM; in the test on IL-6, 3.14 µM. Besides, in the test with SW480 colon cancer cells, the inhibition at 10 µM turned out to be 29.9%.
In the case of `c1cc2cc(-c3n[nH]c4cnc(-c5cncc(CNCC6CCCC6)c5)cc34)[nH]c2cn1` [Compound 277, 1-(5-(3-(1H-Pyrrolo[2,3-c]pyridin-2-yl)-1H-pyrazolo[3,4-c]pyridin-5-yl)pyridin-3-yl)-N-(cyclopentylmethyl)methanamine], the EC50 in test [1] amounted to 1.81 µM; in the test on SW480 colon cancer cells, 3.96 µM; with Wnt activity, 3.48 µM; with IL-6 it was 3.58 µM.
The like results for `Cc1ccncc1-c1cc2c(-c3cc4c(-c5ccoc5)cncc4[nH]3)n[nH]c2cn1` [Compound 313, 3-(4-(Furan-3-yl)-1H-pyrrolo[2,3-c]pyridin-2-yl)-5-(4-methylpyridin-3-yl)-1H-pyrazolo[3,4-c]pyridine] were, in that order, 0.599 µM, 1.74 µM, 1.59 µM and 4.27 µM.
For the compound `CC(C)C(=O)Nc1cncc(-c2cc3c(-c4cc5c(-c6ccoc6)cncc5[nH]4)n[nH]c3cn2)c1` [Compound 317, N-(5-(3-(4-(Furan-3-yl)-1H-pyrrolo[2,3-c]pyridin-2-yl)-1H-pyrazolo[3,4-c]pyridin-5-yl)pyridin-3-yl)isobutyramide], the EC50 was 4.88 µM in test [1], greater than 10 µM with SW480 colon cancer cells, 3.65 µM with Wnt activity and 1 µM with IL-6. In the test on SW480 colon cancer cells, the inhibition at 10 µM came to 0%.

The EC50 is the midpoint of the concentration-response curve. Low values mean an effect from little substance, high ones a need for much substance. One may read the inhibition as the share of the control response that was lost under treatment.
